Test: recombinant barcode read abundance after kanamycin selection (control-corrected) (log10(CPM+1)); higher = more efficient recombination; sequences stand for … in AGTGCAGAGAAAATCGGCCAGTTTTCTCTGCCTGCAGTCCGCATGCCGT…AGATTTATGCAGCGGACTGCCTTTCTCCCAAAGTGATAAACCGGACAGTATCATGGACCGGTTTTCCCGGTAATCCGTATTTGCAAGGTTGGTTTCACT; site = the 11-nt target
Summary of the method: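 Values are log10(CPM+1) from a pooled E. coli screen of targets paired with IS621 bridge RNA target-binding loops. Recombination efficiency here means counts per million of recombinant-junction barcodes, averaged and control-corrected. Plates were chloramphenicol/ampicillin LB agar for the control and chloramphenicol/ampicillin/kanamycin with 0.1 mM IPTG, two replicates each.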
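Note: IS621 recombinase and bridge RNA in Escherichia coli cells.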

Row | Sequence | recombinant barcode read abundance (log10)
1 | TCACGTCCTTGGGTTCTAACCTGTTGCAG (site TCACGTCCTCT) | 0.829
2 | TCACGTCCTTGGGTTCTAACCTGTTGCAG (site TCGCGTCCTCT) | 0.183
3 | TCAGCATCTTGGGTTCTAACCTGTTGCCT (site TCAGAATCTAG) | 0.0342
4 | TCAGCATCTTGGGTTCTAACCTGTTGCCT (site TCAGCATCTAG) | 0.457
5 | TCAGCATCTTGGGTTCTAACCTGTTGCCT (site TCAGGATCTAG) | 0.0504
6 | TCAGCATCTTGGGTTCTAACCTGTTGCCT (site TCAGTATCTAG) | 0.0947
7 | TCAGGATCTTGGGTTCTAACCTGTTGCCT (site TCAGAATCTAG) | 0.201
8 | TCAGGATCTTGGGTTCTAACCTGTTGCCT (site TCAGCATCTAG) | 0.0751
9 | TCAGGATCTTGGGTTCTAACCTGTTGCCT (site TCAGGATCTAG) | 0.679
10 | TCAGGATCTTGGGTTCTAACCTGTTGCCT (site TCAGTATCTAG) | 0.291
11 | TCATATACTTGGGTTCTAACCTGTTGCCT (site ACATTTACTAG) | 0.238
12 | TCATATACTTGGGTTCTAACCTGTTGCCT (site TCATATACTAG) | 0.553
13 | TCATATCCTTGGGTTCTAACCTGTTGCCT (site CTCCGAACTCT) | 0.00468
14 | TCATATCCTTGGGTTCTAACCTGTTGCCT (site TCATATCCTAG) | 0.167
15 | TCATCCGCTTGGGTTCTAACCTGTTGCCT (site CCATCCACTAG) | 0.12
16 | TCATCCGCTTGGGTTCTAACCTGTTGCCT (site TCATCCGCTAG) | 1.05
17 | TCCAAACCTTGGGTTCTAACCTGTTGCAG (site TCCAAACCTCT) | 0.898
18 | TCCAAACCTTGGGTTCTAACCTGTTGCAG (site TCCAACCCTCT) | 0.0235
19 | TCCAAACCTTGGGTTCTAACCTGTTGCAG (site TCCAAGCCTCT) | 0.151
20 | TCCAAACCTTGGGTTCTAACCTGTTGCAG (site TCCAATCCTCT) | 0.0156
21 | TCCAGTCCTTGGGTTCTAACCTGTTGCTG (site AGCAGTCCTCA) | 0.0888
22 | TCCAGTCCTTGGGTTCTAACCTGTTGCTG (site TCCAGTCCTCA) | 0.285
23 | TCCCAAGCTTGGGTTCTAACCTGTTGCTA (site TCCAAAGCTTA) | 0.589
24 | TCCCAAGCTTGGGTTCTAACCTGTTGCTA (site TCCCAAGCTTA) | 1.32
25 | TCCCAAGCTTGGGTTCTAACCTGTTGCTA (site TCCGAAGCTTA) | 0.0505
26 | TCCCAAGCTTGGGTTCTAACCTGTTGCTA (site TCCTAAGCTTA) | 0.141

Row | Sequence | recombinant barcode read abundance (log10)
27 | TCCCGACCTTGGGTTCTAACCTGTTGCCT (site TCCCGAACTAG) | 0.135
28 | TCCCGACCTTGGGTTCTAACCTGTTGCCT (site TCCCGACCTAG) | 1.72
29 | TCCCGACCTTGGGTTCTAACCTGTTGCCT (site TCCCGAGCTAG) | 0.107
30 | TCCCGACCTTGGGTTCTAACCTGTTGCCT (site TCCCGATCTAG) | 0.0793
31 | TCCCGCCCTTGGGTTCTAACCTGTTGCCT (site GCACGCCCTAG) | 0.0125
32 | TCCCGCCCTTGGGTTCTAACCTGTTGCCT (site TCCCGCCCTAG) | 0.464
33 | TCCCGGACTTGGGTTCTAACCTGTTGCCT (site TCACGGACTAG) | 0.212
34 | TCCCGGACTTGGGTTCTAACCTGTTGCCT (site TCCCGGACTAG) | 0.892
35 | TCCCGGACTTGGGTTCTAACCTGTTGCCT (site TCGCGGACTAG) | 0
36 | TCCCGGACTTGGGTTCTAACCTGTTGCCT (site TCTCGGACTAG) | 0.1
37 | TCCGAAGCTTGGGTTCTAACCTGTTGCTA (site TCCAAAGCTTA) | 0.0181
38 | TCCGAAGCTTGGGTTCTAACCTGTTGCTA (site TCCCAAGCTTA) | 0.264
39 | TCCGAAGCTTGGGTTCTAACCTGTTGCTA (site TCCGAAGCTTA) | 0.29
40 | TCCGAAGCTTGGGTTCTAACCTGTTGCTA (site TCCTAAGCTTA) | 0.0103
41 | TCCGAGACTTGGGTTCTAACCTGTTGCCT (site TCCGAGACTAG) | 1.4
42 | TCCGAGACTTGGGTTCTAACCTGTTGCCT (site TCCGAGACTCG) | 0.048
43 | TCCGAGACTTGGGTTCTAACCTGTTGCCT (site TCCGAGACTGG) | 0.267
44 | TCCGAGACTTGGGTTCTAACCTGTTGCCT (site TCCGAGACTTG) | 0.157
45 | TCCGGAGCTTGGGTTCTAACCTGTTGCCG (site GTGAACCCTTT) | 0.0406
46 | TCCGGAGCTTGGGTTCTAACCTGTTGCCG (site TCCGGAGCTCG) | 0.652
47 | TCCGGTTCTTGGGTTCTAACCTGTTGCCT (site ACGGGTTCTAG) | 0.0897
48 | TCCGGTTCTTGGGTTCTAACCTGTTGCCT (site TCCGGTTCTAG) | 0.965
49 | TCCGTGGCTTGGGTTCTAACCTGTTGCCT (site TCCGTGACTAG) | 0.121
50 | TCCGTGGCTTGGGTTCTAACCTGTTGCCT (site TCCGTGCCTAG) | 0.261
51 | TCCGTGGCTTGGGTTCTAACCTGTTGCCT (site TCCGTGGCTAG) | 0.916
52 | TCCGTGGCTTGGGTTCTAACCTGTTGCCT (site TCCGTGTCTAG) | 0.244

Row | Sequence | recombinant barcode read abundance (log10)
53 | TCCGTGTCTTGGGTTCTAACCTGTTGCCT (site TCCGTGACTAG) | 0.0308
54 | TCCGTGTCTTGGGTTCTAACCTGTTGCCT (site TCCGTGCCTAG) | 0.241
55 | TCCGTGTCTTGGGTTCTAACCTGTTGCCT (site TCCGTGGCTAG) | 0.0597
56 | TCCGTGTCTTGGGTTCTAACCTGTTGCCT (site TCCGTGTCTAG) | 2.24
57 | TCCTAGTCTTGGGTTCTAACCTGTTGCAG (site GGTCCTCCTTC) | 0.0984
58 | TCCTAGTCTTGGGTTCTAACCTGTTGCAG (site TCCTAGTCTCT) | 0.392
59 | TCCTATCCTTGGGTTCTAACCTGTTGCGT (site TCCCATCCTAC) | 0.9
60 | TCCTATCCTTGGGTTCTAACCTGTTGCGT (site TCCTATCCTAC) | 0.623
61 | TCCTGAGCTTGGGTTCTAACCTGTTGCTG (site TCCTGAGCTCA) | 0.405
62 | TCCTGAGCTTGGGTTCTAACCTGTTGCTG (site TCCTTAGCTCG) | 0.0103
63 | TCCTTCACTTGGGTTCTAACCTGTTGCCT (site TCCTTCACTAG) | 0.285
64 | TCCTTCACTTGGGTTCTAACCTGTTGCCT (site TCGTTCGCTAG) | 0.0665
65 | TCGAACTCTTGGGTTCTAACCTGTTGCTT (site TCGAACTCTAA) | 0.339
66 | TCGAACTCTTGGGTTCTAACCTGTTGCTT (site TCGCGCTCTAA) | 0.0841
67 | TCGAAGTCTTGGGTTCTAACCTGTTGCTA (site AGATCTCCTAC) | 0.0769
68 | TCGAAGTCTTGGGTTCTAACCTGTTGCTA (site TCGAAGTCTTA) | 0.272
69 | TCGAGGCCTTGGGTTCTAACCTGTTGCTA (site CATCCATCTAT) | 0.162
70 | TCGAGGCCTTGGGTTCTAACCTGTTGCTA (site TCGAGGCCTTA) | 0.0602
71 | TCGAGTCCTTGGGTTCTAACCTGTTGCGG (site TCGAGTCCTCC) | 1.08
72 | TCGAGTCCTTGGGTTCTAACCTGTTGCGG (site TTGAGGCCTCC) | 0
73 | TCGAGTGCTTGGGTTCTAACCTGTTGCAG (site CTACTATCTAC) | 0.0294
74 | TCGAGTGCTTGGGTTCTAACCTGTTGCAG (site TCGAGTGCTCT) | 0.263
75 | TCGATCCCTTGGGTTCTAACCTGTTGCCT (site TCAATCCCTAG) | 0.194
76 | TCGATCCCTTGGGTTCTAACCTGTTGCCT (site TCCATCCCTAG) | 0.144
77 | TCGATCCCTTGGGTTCTAACCTGTTGCCT (site TCGATCCCTAG) | 0.577
